US20230286970A1, “NOVEL OXADIAZOLE-BASED SELECTIVE HDAC6 INHIBITORS” (ITALFARMACO S.P.A., priority 2020, published 2023)
Like-named read-outs stand apart in the source and are kept apart here.

How the values were obtained:
[1] = 90 min, pH 7.4
Method: (§2) Test compounds were incubated in rat and human liver S9 fraction at 37° C. up to 90 minutes in order to evaluate their stability to Phase I metabolism by hepatic enzymes. Each test compound was incubated at μM concentration (50 μM when the samples were analysed by UV/HPLC, 1 or 2 μM when the samples were analysed by LC-MS/MS) with S9 fraction (protein content 2 mg/m L) in 100 mM phosphate buffer (pH 7.4), 3.3 mM MgCl2 and 1.3 mM NADPH for 0, 10, 30, 60 and 90 minutes at 37° C. in a thermostated oscillating bath. The reaction was stopped placing samples on ice bath and adding acidified acetonitrile. After centrifugation (10 minutes at 14000 rpm) an aliquot of the supernatant was diluted with water, filtered with 0.45 μm regenerated cellulose syringe filters and injected in HPLC-UV or in LC-MS/MS. The percentage of the remaining amount at the various incubation times with respect to the initial amount were calculated.

HDAC3 = HDAC3 (Homo sapiens (Human), UniProt O15379); assay: Enzymatic screening, HDAC3 inhibition; type: biochemical
HDAC7 = HDAC7 (Homo sapiens (Human), UniProt Q8WUI4); assay: Enzymatic screening, HDAC7 inhibition; type: biochemical
HDAC5 = HDAC5 (Homo sapiens (Human), UniProt Q9UQL6); assay: Enzymatic screening, HDAC5 inhibition; type: biochemical
recombinant human HDAC1 = recombinant human HDAC1 (Homo sapiens (Human), UniProt Q13547); assay: Enzymatic screening, HDAC1 inhibition (fluorogenic FdL_G substrate); type: biochemical
Method in brief: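 Recombinant human HDAC1 inhibition was measured fluorometrically using the FLUOR DE LYS-Green (FdL_G) substrate. Compounds at 8 doses (1% DMSO final) in Tris-HCl pH 8 buffer with NaCl, Tween-20 and glycerol were preincubated in triplicate with enzyme and 1 mg/mL BSA, then given substrate. Developer I plus 2 μM TSA was added, and fluorescence read after 25 minutes in the dark.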

HDAC8 = HDAC8 (Homo sapiens (Human), UniProt Q9BY41); assay: Enzymatic screening, HDAC8 inhibition; type: biochemical
Method in brief: (§1)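 Enzyme was preincubated with compound (8 doses, triplicate, 1% DMSO) in 25 mM Tris-HCl pH 8, 130 mM NaCl, 0.05% Tween-20, 10% glycerol, with BSA at 2 mg/mL (HDAC4, HDAC9) or 1 mg/mL (HDAC8, HDAC10). A FLUOR DE LYS, FLUOR DE LYS-Green or Boc-Lys(Tfa)-AMC substrate was then added, and fluorescence was read after developer plus 2 μM TSA.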

[2] = 4 h
[3] = 90 min, pH 7.4; remark: listed apart in the source
[4] = 4 h; remark: listed apart in the source
Method: (§3) In order to evaluate the stability to circulating enzymes, test compounds were incubated in human and rat plasma at 37° C. in a thermostated oscillating bath. Each test compound was incubated at μM concentration (50 μM when the samples were analysed by UV/HPLC, 1 or 2 μM when the samples were analysed by LC-MS/MS) for 0, 15, 30 minutes and 1, 2 and 4 hours. The reaction was stopped placing samples on ice bath and adding acidified acetonitrile. After centrifugation (10 minutes at 14000 rpm) an aliquot of the supernatant was diluted with water, filtered with 0.45 μm regenerated cellulose syringe filters and injected in HPLC-UV or in LC-MS/MS. The percentage of the remaining amount at the various incubation times with respect to the initial amount were calculated. The half-life in plasma was also calculated.

recombinant human HDAC6 = recombinant human HDAC6 (Homo sapiens (Human), UniProt Q9UBN7); assay: Enzymatic screening, HDAC6 inhibition (fluorogenic FdL_G substrate); type: biochemical
recombinant human HDAC6, sequence (Q9UBN7 whole entry): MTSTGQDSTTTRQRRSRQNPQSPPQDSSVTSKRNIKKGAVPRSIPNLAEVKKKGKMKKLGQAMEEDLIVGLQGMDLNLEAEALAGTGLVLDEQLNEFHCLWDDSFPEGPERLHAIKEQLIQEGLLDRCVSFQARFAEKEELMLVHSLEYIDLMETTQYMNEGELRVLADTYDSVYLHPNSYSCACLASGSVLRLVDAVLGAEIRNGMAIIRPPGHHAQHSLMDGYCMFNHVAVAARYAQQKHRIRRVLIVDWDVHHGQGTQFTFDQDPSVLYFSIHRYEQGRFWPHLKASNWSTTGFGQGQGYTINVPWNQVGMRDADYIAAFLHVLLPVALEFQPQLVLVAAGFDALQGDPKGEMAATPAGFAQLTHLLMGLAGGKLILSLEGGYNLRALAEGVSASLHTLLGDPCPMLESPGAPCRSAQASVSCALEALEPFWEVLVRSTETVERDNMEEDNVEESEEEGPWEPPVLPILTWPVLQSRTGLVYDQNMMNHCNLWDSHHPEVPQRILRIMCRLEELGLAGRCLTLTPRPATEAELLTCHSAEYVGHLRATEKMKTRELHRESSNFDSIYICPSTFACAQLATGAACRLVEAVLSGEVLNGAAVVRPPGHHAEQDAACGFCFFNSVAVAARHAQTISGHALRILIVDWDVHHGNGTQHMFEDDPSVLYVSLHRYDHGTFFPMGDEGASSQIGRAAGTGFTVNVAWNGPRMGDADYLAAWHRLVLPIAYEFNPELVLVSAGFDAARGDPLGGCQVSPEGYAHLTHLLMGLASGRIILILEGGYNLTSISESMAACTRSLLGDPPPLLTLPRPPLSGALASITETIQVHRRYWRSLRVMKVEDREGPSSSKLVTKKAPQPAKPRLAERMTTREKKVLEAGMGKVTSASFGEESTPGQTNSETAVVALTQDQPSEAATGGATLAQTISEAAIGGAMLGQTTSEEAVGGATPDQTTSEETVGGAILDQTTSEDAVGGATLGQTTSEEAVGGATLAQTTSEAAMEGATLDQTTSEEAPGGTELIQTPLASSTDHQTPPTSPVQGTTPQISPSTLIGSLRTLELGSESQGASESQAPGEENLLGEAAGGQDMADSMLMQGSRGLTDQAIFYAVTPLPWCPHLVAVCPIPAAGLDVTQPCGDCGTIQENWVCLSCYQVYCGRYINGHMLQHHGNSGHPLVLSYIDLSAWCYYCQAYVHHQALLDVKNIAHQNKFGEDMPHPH
Method in brief: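 Enzyme was preincubated with compound (8 doses, triplicate, 1% DMSO) in 25 mM Tris-HCl pH 8, 130 mM NaCl, 0.05% Tween-20, 10% glycerol, with BSA. A FLUOR DE LYS-Green substrate was then added, and fluorescence was read after developer plus 2 μM TSA.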

HDAC10 = HDAC10 (Homo sapiens (Human), UniProt Q969S8); assay: Enzymatic screening, HDAC10 inhibition; type: biochemical
HDAC10, sequence (Q969S8 whole entry): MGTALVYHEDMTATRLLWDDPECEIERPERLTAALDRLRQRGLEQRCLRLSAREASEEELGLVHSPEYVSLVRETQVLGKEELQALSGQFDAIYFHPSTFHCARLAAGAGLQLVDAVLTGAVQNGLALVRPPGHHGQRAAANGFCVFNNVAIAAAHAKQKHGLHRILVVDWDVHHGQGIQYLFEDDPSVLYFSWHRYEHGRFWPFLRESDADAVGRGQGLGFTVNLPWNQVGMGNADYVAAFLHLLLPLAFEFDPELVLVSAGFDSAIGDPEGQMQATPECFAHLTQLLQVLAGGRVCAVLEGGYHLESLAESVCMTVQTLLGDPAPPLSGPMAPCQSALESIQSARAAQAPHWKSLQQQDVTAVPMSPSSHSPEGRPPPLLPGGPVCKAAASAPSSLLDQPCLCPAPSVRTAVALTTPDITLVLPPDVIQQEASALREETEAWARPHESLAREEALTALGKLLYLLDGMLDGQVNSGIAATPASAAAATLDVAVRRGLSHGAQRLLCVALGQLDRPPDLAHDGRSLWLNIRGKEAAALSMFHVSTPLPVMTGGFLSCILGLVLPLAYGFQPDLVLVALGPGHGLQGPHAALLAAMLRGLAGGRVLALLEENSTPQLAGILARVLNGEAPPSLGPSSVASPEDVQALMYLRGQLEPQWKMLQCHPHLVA
Method in brief: as §1

HDAC9 = HDAC9 (Homo sapiens (Human), UniProt Q9UKV0); assay: Enzymatic screening, HDAC9 inhibition; type: biochemical
HDAC9, sequence (Q9UKV0 whole entry): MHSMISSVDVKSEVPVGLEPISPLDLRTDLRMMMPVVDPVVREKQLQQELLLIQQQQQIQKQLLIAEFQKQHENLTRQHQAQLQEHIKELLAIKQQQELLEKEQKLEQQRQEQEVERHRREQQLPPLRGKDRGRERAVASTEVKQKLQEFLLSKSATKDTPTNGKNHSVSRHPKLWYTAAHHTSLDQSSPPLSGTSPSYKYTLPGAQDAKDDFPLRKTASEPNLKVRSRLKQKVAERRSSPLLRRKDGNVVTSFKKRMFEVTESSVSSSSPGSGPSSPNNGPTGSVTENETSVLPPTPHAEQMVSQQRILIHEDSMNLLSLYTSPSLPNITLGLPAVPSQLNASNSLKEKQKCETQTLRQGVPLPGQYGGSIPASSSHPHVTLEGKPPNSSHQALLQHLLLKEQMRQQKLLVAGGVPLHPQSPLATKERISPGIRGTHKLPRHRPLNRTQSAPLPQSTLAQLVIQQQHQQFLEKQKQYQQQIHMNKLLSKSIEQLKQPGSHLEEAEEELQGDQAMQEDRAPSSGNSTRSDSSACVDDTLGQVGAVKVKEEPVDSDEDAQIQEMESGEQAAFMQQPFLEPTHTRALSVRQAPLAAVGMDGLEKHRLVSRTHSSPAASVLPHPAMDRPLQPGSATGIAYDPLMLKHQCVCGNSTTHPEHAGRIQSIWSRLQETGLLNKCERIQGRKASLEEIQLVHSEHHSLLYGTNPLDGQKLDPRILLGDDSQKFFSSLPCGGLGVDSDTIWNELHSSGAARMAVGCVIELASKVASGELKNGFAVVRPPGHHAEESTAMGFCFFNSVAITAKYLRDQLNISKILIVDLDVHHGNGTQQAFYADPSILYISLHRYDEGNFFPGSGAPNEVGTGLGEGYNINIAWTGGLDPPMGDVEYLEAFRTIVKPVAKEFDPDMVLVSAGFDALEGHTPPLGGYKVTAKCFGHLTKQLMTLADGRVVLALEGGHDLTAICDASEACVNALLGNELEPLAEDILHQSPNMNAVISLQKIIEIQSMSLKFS
Method in brief: as §1

HDAC4 = HDAC4 (Homo sapiens (Human), UniProt P56524); assay: Enzymatic screening, HDAC4 inhibition; type: biochemical
Method in brief: as §1

HDAC11 = HDAC11 (Homo sapiens (Human), UniProt Q96DB2); assay: Enzymatic screening, HDAC11 inhibition; type: biochemical
HDAC2 = HDAC2 (Homo sapiens (Human), UniProt Q92769); assay: Enzymatic screening, HDAC2 inhibition; type: biochemical
HDAC2, sequence (Q92769 whole entry): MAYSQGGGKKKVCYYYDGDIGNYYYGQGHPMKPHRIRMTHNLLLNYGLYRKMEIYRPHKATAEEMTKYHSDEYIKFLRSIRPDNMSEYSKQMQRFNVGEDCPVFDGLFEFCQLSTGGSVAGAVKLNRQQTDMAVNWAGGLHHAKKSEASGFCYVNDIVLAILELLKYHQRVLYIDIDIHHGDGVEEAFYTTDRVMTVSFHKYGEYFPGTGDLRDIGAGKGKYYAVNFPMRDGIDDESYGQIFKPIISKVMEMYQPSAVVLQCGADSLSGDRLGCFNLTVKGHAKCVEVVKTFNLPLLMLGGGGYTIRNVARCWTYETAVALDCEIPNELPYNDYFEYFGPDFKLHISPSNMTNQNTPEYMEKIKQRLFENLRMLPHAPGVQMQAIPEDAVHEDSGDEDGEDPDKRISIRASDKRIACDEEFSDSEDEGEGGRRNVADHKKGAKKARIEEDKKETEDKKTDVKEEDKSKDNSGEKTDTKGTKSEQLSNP

[5] = tested on: α-tubulin acetylation in 697 cell line; assay: In vitro α-tubulin acetylation in 697 cell line (ELISA); type: cell-based; details: 16 hours, read-out: fold increase @ 1 uM TubAc (ratio of acetylated tubulin and total tubulin towards control)
Method in brief: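 B 697 cells in RPMI 10% FCS were treated for 16 h at 37 °C with compound at 1000, 333, 111 or 37 nM. Lysate (0.3 μg protein) was coated and probed by ELISA for acetylated and total α-tubulin, read at 450 nm. The acetylated/total ratio is given as fold over untreated control.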

[6] = Stability to Phase I metabolism in rat S9 liver fraction; details: after 90 minutes, 37° C.
[7] = Stability in human plasma; details: after 4 hours, 37° C.
Method: as §3

[8] = Stability to Phase I metabolism in human S9 liver fraction; details: after 90 minutes, 37° C.
Method: as §2

Stability in rat plasma = details: after 4 hours, 37° C.

HDAC7, sequence (Q8WUI4 whole entry): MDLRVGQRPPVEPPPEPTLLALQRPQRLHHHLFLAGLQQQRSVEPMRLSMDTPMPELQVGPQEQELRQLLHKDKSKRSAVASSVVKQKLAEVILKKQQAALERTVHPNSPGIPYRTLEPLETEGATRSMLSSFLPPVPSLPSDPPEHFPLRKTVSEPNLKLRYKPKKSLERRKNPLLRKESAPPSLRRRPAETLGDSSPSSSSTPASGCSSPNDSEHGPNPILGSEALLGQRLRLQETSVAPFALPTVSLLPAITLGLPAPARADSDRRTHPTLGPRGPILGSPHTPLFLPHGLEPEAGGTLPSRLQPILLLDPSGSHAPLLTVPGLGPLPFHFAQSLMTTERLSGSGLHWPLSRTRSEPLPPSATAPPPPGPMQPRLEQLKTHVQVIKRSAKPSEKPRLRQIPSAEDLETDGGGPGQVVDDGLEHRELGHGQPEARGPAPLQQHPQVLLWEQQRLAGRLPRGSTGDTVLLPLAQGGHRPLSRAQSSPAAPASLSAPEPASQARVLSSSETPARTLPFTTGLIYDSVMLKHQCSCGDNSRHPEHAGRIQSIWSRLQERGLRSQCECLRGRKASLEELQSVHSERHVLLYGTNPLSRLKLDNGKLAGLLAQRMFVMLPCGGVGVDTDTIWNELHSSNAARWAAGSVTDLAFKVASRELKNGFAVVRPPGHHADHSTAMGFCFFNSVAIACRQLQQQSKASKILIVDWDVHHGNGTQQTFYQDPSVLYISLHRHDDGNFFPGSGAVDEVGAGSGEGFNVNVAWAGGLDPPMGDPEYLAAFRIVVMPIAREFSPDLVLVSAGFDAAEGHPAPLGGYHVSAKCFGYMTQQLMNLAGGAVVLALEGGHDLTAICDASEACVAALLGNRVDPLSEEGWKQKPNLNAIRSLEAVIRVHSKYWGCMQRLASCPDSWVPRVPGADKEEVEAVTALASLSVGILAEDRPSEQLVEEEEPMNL
HDAC3, sequence (O15379 whole entry): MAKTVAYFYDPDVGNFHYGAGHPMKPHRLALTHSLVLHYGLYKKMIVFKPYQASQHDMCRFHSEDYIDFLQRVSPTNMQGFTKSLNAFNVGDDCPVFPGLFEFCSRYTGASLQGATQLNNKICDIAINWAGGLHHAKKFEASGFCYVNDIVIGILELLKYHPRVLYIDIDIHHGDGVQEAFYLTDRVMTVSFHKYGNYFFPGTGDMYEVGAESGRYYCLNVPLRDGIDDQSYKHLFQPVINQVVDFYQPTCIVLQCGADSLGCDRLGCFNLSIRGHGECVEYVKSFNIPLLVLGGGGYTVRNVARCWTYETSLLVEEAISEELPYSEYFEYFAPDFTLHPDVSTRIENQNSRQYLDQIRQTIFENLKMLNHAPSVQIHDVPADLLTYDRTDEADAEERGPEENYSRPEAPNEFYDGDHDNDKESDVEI
HDAC3, sequence (Q9Y618 395-489 partner): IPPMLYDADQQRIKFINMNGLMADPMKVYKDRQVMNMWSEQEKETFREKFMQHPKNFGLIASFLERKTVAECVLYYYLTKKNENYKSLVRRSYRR

| SMILES | residual percentage in HUMAN S9 FRACTION [1] | IC50 (HDAC3) | IC50 (HDAC7) | IC50 (HDAC5) | IC50 (recombinant human HDAC1) | IC50 (HDAC8) | residual percentage in RAT PLASMA [2] | residual percentage in RAT S9 FRACTION [3] | residual percentage in HUMAN PLASMA [4] | IC50 (recombinant human HDAC6) | IC50 (HDAC10) | IC50 (HDAC9) | IC50 (HDAC4) | IC50 (HDAC11) | IC50 (HDAC2) | fold induction at 1 µM [5] | residual percentage in RAT S9 FRACTION [6] | residual percentage in HUMAN PLASMA [7] | residual percentage in HUMAN S9 FRACTION [8] | residual percentage in RAT PLASMA (Stability in rat plasma) |
| --- | --- | --- | --- | --- | --- | --- | --- | --- | --- | --- | --- | --- | --- | --- | --- | --- | --- | --- | --- | --- |
| O=C1Nc2ccc(-c3cn(Cc4ccc(-c5nnc(C(F)F)o5)cn4)nn3)cc2C12CCNCC2 [Compd. 19, 5-(1-((5-(5-(difluoromethyl)-1,3,4-oxadiazol-2-yl)pyridin-2-yl)methyl)-1H-1,2,3-triazol-4-yl)spiro[indoline-3,4′-piperidin]-2-one] | 96% | > 30 µM | > 30 µM | > 30 µM | > 200 µM | 572 µM | 83% | 94% | 83% | 0.011 µM | > 30 µM | > 30 µM | > 30 µM | > 30 µM | > 30 µM | 4 | – | – | – | – |
| O=C(Nc1cc(-c2nnn(Cc3ccc(-c4nnc(C(F)F)o4)cn3)n2)ccc1O)N1CCOCC1 [compound 2, N-(5-(2-((5-(5-(difluoromethyl)-1,3,4-oxadiazol-2-yl)pyridin-2-yl)methyl)-2H-tetrazol-5-yl)-2-hydroxyphenyl)morpholine-4-carboxamide] | – | > 30 µM | > 30 µM | > 30 µM | > 200 µM | > 200 µM | – | – | – | 0.01 µM | > 30 µM | > 30 µM | > 30 µM | > 30 µM | > 30 µM | 26 | 61% | 87% | 70% | 90% |
| O=C1Nc2ccc(-c3cn(Cc4ccc(-c5nnc(C(F)F)o5)cc4)nn3)cc2C12CCNCC2 [compound 46, 5-(1-(4-(5-(difluoromethyl)-1,3,4-oxadiazol-2-yl)benzyl)-1H-1,2,3-triazol-4-yl)spiro[indoline-3,4′-piperidin]-2-one] | 81% | – | – | – | > 200 µM | – | 72% | 60% | 74% | 0.02 µM | – | – | – | – | – | 5 | – | – | – | – |
| Nc1nc2cc(-c3cn(Cc4ccc(-c5nnc(C(F)F)o5)cc4)nn3)ccc2[nH]1 [Compd. 8, 5-(1-(4-(5-(difluoromethyl)-1,3,4-oxadiazol-2-yl)benzyl)-1H-1,2,3-triazol-4-yl)-1H-benzo[d]imidazol-2-amine] | – | > 30 µM | > 30 µM | > 30 µM | > 200 µM | > 200 µM | – | – | – | 0.014 µM | > 30 µM | > 30 µM | > 30 µM | > 30 µM | > 30 µM | 10 | 94% | 99% | 95% | 76% |
| Nc1ccc(-c2cn(Cc3ccc(-c4nnc(C(F)F)o4)cn3)nn2)cn1 [compound 5, 5-(1-((5-(5-(difluoromethyl)-1,3,4-oxadiazol-2-yl)pyridin-2-yl)methyl)-1H-1,2,3-triazol-4-yl)pyridin-2-amine] | – | > 30 µM | > 30 µM | > 30 µM | > 200 µM | > 200 µM | – | – | – | 0.012 µM | > 30 µM | > 30 µM | > 30 µM | > 30 µM | > 30 µM | 19 | 93% | 74% | 92% | 70% |
| FC(F)c1nnc(-c2ccc(Cn3cnc(-c4ccc(NC5=NCCN5)cc4)c3)nc2)o1 [compound 20, N-(4-(1-((5-(5-(difluoromethyl)-1,3,4-oxadiazol-2-yl)pyridin-2-yl)methyl)-1H-imidazol-4-yl)phenyl)-4,5-dihydro-1H-imidazol-2-amine] | – | > 30 µM | > 30 µM | > 30 µM | > 200 µM | 578 µM | – | – | – | 0.011 µM | > 30 µM | > 30 µM | > 30 µM | > 30 µM | > 30 µM | 11 | 93% | 97% | 99% | 82% |
